This is an account of results in patent US20260305610A1, “TRIAZOLE COMPOUND, AND PREPARATION METHOD THEREFOR, HERBICIDAL COMPOSITION AND USE THEREOF” (QINGDAO KINGAGROOT CHEMICAL COMPOUND CO., LTD., priority 2023, published 2026).

Series [1] relates to monocotyledonous and dicotyledonous weeds. In words: Pre-emergence test experiment (weeds). In kind it is in vivo. To be noted: 30 g a.i./ha. Also noted: key: 9: completely dead; 8: growth control rate is greater than or equal to 90% and less than 100%; 7: growth control rate is greater than or equal to 80% and less than 90%; 6: growth control rate is greater than or equal to 70% and less than 80%; growth control rate is greater than or equal to 50% and less than 70%; 4: growth control rate is greater than or equal to 30% and less than 50%; growth control rate is greater than or equal to 20% and less than 30%; growth control rate is greater than or equal to 10% and less than 20%; growth control rate is less than 10%; 0: no effect.

The next series concerns major crops. In words: Pre-emergence test experiment (crops). In kind it is in vivo. The arrangement: key: 9: completely dead; 8: growth control rate is greater than or equal to 90% and less than 100%; 7: growth control rate is greater than or equal to 80% and less than 90%; 6: growth control rate is greater than or equal to 70% and less than 80%; growth control rate is greater than or equal to 50% and less than 70%; 4: growth control rate is greater than or equal to 30% and less than 50%; growth control rate is greater than or equal to 20% and less than 30%; growth control rate is greater than or equal to 10% and less than 20%; growth control rate is less than 10%; 0: no effect. To be noted: 30 g a.i./ha.

Take `Cc1ccc(-n2cnc(C(F)(F)F)n2)nc1Oc1cccc(F)c1` [Compound 39]: in series [1], the “Pre-emergence activity level (growth control rate) on Amaranthus retroflexus” value is recorded as 9 and the “Pre-emergence activity level (growth control rate) on Veronica” value (from here on “Pre-emergence activity level … on Veronica”) is given as 9. In the series with major crops, the “Pre-emergence plant damage level (growth control rate) on Corn” value (shortened to “Pre-emergence plant damage level … on Corn”) came to 0, the “Pre-emergence plant damage level (growth control rate) on Cotton” value (shortened to “Pre-emergence plant damage level … on Cotton”) is listed as 0 and the “Pre-emergence plant damage level (growth control rate) on Soybean” value (“Pre-emergence plant damage level … on Soybean” for short) was 0.

Take `Cc1ccc(-n2cnc(C(F)(F)F)n2)nc1Oc1cccc(Cl)c1` [Compound 40]: in series [1], the “Pre-emergence activity level (growth control rate) on Amaranthus retroflexus” value worked out at 9; the “Pre-emergence activity level (growth control rate) on Descurainia sophia” value is reported as 9; the “Pre-emergence activity level (growth control rate) on Digitaria sanguinalis” value was 7 (growth control rate is greater than or equal to 80% and less than 90%); the “Pre-emergence activity level (growth control rate) on Setaria viridis” value is 7 (growth control rate is greater than or equal to 80% and less than 90%). Further, in series [1], the “Pre-emergence activity level (growth control rate) on Solanum nigrum” value is 7 (growth control rate is greater than or equal to 80% and less than 90%); the “Pre-emergence activity level … on Veronica” value was determined as 9. For the same compound, in the series with major crops, the “Pre-emergence plant damage level … on Corn” value is reported as 0, the “Pre-emergence plant damage level … on Cotton” value was determined as 0 and the “Pre-emergence plant damage level … on Soybean” value is recorded as 0.

Consider `Cc1ccc(-n2cnc(C(F)(F)F)n2)nc1Oc1cccc(OC(F)F)c1` [Compound 43], for which, in series [1], the “Pre-emergence activity level (growth control rate) on Amaranthus retroflexus” value stood at 9; the “Pre-emergence activity level (growth control rate) on Descurainia sophia” value was 9; the “Pre-emergence activity level (growth control rate) on Digitaria sanguinalis” value is listed as 9; the “Pre-emergence activity level (growth control rate) on Setaria viridis” value was 8 (growth control rate is greater than or equal to 90% and less than 100%). For the same compound, in series [1], the “Pre-emergence activity level (growth control rate) on Solanum nigrum” value was 7 (growth control rate is greater than or equal to 80% and less than 90%); the “Pre-emergence activity level … on Veronica” value was determined as 9. Further, in the series with major crops, the “Pre-emergence plant damage level … on Corn” value worked out at 0, the “Pre-emergence plant damage level … on Cotton” value is reported as 0 and the “Pre-emergence plant damage level … on Soybean” value turned out to be 0.

As for `Cc1ccc(-n2cnc(C(F)(F)C(F)(F)F)n2)nc1Oc1cccc(OC(F)(F)F)c1` [Compound 65], in series [1], the “Pre-emergence activity level (growth control rate) on Descurainia sophia” value is reported as 9, the “Pre-emergence activity level (growth control rate) on Digitaria sanguinalis” value is 9 and the “Pre-emergence activity level (growth control rate) on Setaria viridis” value stood at 9. In the series on major crops, the “Pre-emergence plant damage level … on Corn” value is listed as 0, the “Pre-emergence plant damage level … on Cotton” value is reported as 0 and the “Pre-emergence plant damage level … on Soybean” value is 0.

For `Cc1ccc(-n2cnc(C(F)(F)F)n2)nc1Oc1ccc(F)c(OC(F)(F)F)c1` [Compound 66], in series [1], the “Pre-emergence activity level (growth control rate) on Amaranthus retroflexus” value came to 9, the “Pre-emergence activity level (growth control rate) on Descurainia sophia” value is recorded as 9, the “Pre-emergence activity level (growth control rate) on Digitaria sanguinalis” value is 9 and the “Pre-emergence activity level (growth control rate) on Setaria viridis” value was 9. Besides, in series [1], the “Pre-emergence activity level (growth control rate) on Solanum nigrum” value amounted to 9 and the “Pre-emergence activity level … on Veronica” value came to 9. In addition, in the series with major crops, the “Pre-emergence plant damage level … on Corn” value turned out to be 0, the “Pre-emergence plant damage level … on Cotton” value came out at 0 and the “Pre-emergence plant damage level … on Soybean” value is given as 0.

Take `COc1cc(Oc2cccc(OC(F)(F)F)c2)nc(-n2cnc(C(F)F)n2)c1` [Compound 67]: in series [1], the “Pre-emergence activity level (growth control rate) on Amaranthus retroflexus” value stood at 9; the “Pre-emergence activity level (growth control rate) on Descurainia sophia” value is recorded as 9; the “Pre-emergence activity level (growth control rate) on Digitaria sanguinalis” value is 7 (growth control rate is greater than or equal to 80% and less than 90%); the “Pre-emergence activity level (growth control rate) on Setaria viridis” value was 7 (growth control rate is greater than or equal to 80% and less than 90%). Further, the “Pre-emergence activity level … on Veronica” value in series [1] is 9. In the series with major crops, the “Pre-emergence plant damage level … on Corn” value was determined as 0, the “Pre-emergence plant damage level … on Cotton” value turned out to be 0 and the “Pre-emergence plant damage level … on Soybean” value is given as 0.

For `COCc1cc(Oc2cccc(C(F)(F)F)c2)nc(-n2cnc(C(F)(F)F)n2)c1` [Compound 68], in series [1], the “Pre-emergence activity level (growth control rate) on Amaranthus retroflexus” value is on record as 9; the “Pre-emergence activity level (growth control rate) on Descurainia sophia” value is 8 (growth control rate is greater than or equal to 90% and less than 100%); the “Pre-emergence activity level (growth control rate) on Digitaria sanguinalis” value was 7 (growth control rate is greater than or equal to 80% and less than 90%); the “Pre-emergence activity level (growth control rate) on Setaria viridis” value was 8 (growth control rate is greater than or equal to 90% and less than 100%). In addition, in series [1], the “Pre-emergence activity level (growth control rate) on Solanum nigrum” value is 7 (growth control rate is greater than or equal to 80% and less than 90%); the “Pre-emergence activity level … on Veronica” value was 8 (growth control rate is greater than or equal to 90% and less than 100%). Besides, in the series with major crops, the “Pre-emergence plant damage level … on Corn” value is recorded as 0, the “Pre-emergence plant damage level … on Cotton” value is 0 and the “Pre-emergence plant damage level … on Soybean” value came out at 0.

In the case of `CCc1ccc(-n2cnc(C(F)(F)F)n2)nc1Oc1cccc(C(C)(F)F)c1` [Compound 69], in series [1], the “Pre-emergence activity level (growth control rate) on Amaranthus retroflexus” value was 9, the “Pre-emergence activity level (growth control rate) on Descurainia sophia” value was 9, the “Pre-emergence activity level (growth control rate) on Digitaria sanguinalis” value was 9 and the “Pre-emergence activity level (growth control rate) on Setaria viridis” value is reported as 9. Also, in series [1], the “Pre-emergence activity level (growth control rate) on Solanum nigrum” value was 9 and the “Pre-emergence activity level … on Veronica” value worked out at 9. Besides, in the series with major crops, the “Pre-emergence plant damage level … on Corn” value is given as 0, the “Pre-emergence plant damage level … on Cotton” value is on record as 0 and the “Pre-emergence plant damage level … on Soybean” value came out at 0.

As for `Cc1ccc(-n2cnc(C(F)F)n2)nc1Oc1ccc(F)c(C(F)(F)F)c1` [Compound 70], in series [1], the “Pre-emergence activity level (growth control rate) on Amaranthus retroflexus” value amounted to 9, the “Pre-emergence activity level (growth control rate) on Descurainia sophia” value is 9, the “Pre-emergence activity level (growth control rate) on Digitaria sanguinalis” value is on record as 9 and the “Pre-emergence activity level (growth control rate) on Setaria viridis” value is recorded as 9. Also, in series [1], the “Pre-emergence activity level (growth control rate) on Solanum nigrum” value came to 9 and the “Pre-emergence activity level … on Veronica” value is given as 9. In the series with major crops, the “Pre-emergence plant damage level … on Corn” value worked out at 0, the “Pre-emergence plant damage level … on Cotton” value was determined as 0 and the “Pre-emergence plant damage level … on Soybean” value is 0.

On to `CCc1ccc(-n2cnc(C(F)(F)F)n2)nc1Oc1cccc(OC(F)(F)F)c1` [Compound 71], for which, in series [1], the “Pre-emergence activity level (growth control rate) on Amaranthus retroflexus” value was found to be 9, the “Pre-emergence activity level (growth control rate) on Descurainia sophia” value stood at 9, the “Pre-emergence activity level (growth control rate) on Digitaria sanguinalis” value is 9 and the “Pre-emergence activity level (growth control rate) on Setaria viridis” value was 9. Moreover, in series [1], the “Pre-emergence activity level (growth control rate) on Solanum nigrum” value is reported as 9 and the “Pre-emergence activity level … on Veronica” value worked out at 9. For the same compound, in the series with major crops, the “Pre-emergence plant damage level … on Corn” value is listed as 0, the “Pre-emergence plant damage level … on Cotton” value is reported as 0 and the “Pre-emergence plant damage level … on Soybean” value is 0.

For the compound `CCc1ccc(-n2cnc(C(F)F)n2)nc1Oc1cccc(C(F)(F)F)c1` [Compound 72], in series [1], the “Pre-emergence activity level (growth control rate) on Amaranthus retroflexus” value is on record as 9; the “Pre-emergence activity level (growth control rate) on Descurainia sophia” value was found to be 9; the “Pre-emergence activity level (growth control rate) on Digitaria sanguinalis” value is 7 (growth control rate is greater than or equal to 80% and less than 90%); the “Pre-emergence activity level (growth control rate) on Setaria viridis” value is 8 (growth control rate is greater than or equal to 90% and less than 100%). Further, in series [1], the “Pre-emergence activity level (growth control rate) on Solanum nigrum” value came to 9 and the “Pre-emergence activity level … on Veronica” value is listed as 9. In the series with major crops, the “Pre-emergence plant damage level … on Corn” value turned out to be 0, the “Pre-emergence plant damage level … on Cotton” value was determined as 0 and the “Pre-emergence plant damage level … on Soybean” value is 0.

Turning to `CCc1ccc(-n2cnc(C(F)F)n2)nc1Oc1cccc(OC(F)(F)F)c1` [Compound 73], in series [1], the “Pre-emergence activity level (growth control rate) on Amaranthus retroflexus” value came to 9; the “Pre-emergence activity level (growth control rate) on Descurainia sophia” value was determined as 9; the “Pre-emergence activity level (growth control rate) on Digitaria sanguinalis” value is 8 (growth control rate is greater than or equal to 90% and less than 100%); the “Pre-emergence activity level (growth control rate) on Setaria viridis” value was 8 (growth control rate is greater than or equal to 90% and less than 100%). Moreover, in series [1], the “Pre-emergence activity level (growth control rate) on Solanum nigrum” value is 9 and the “Pre-emergence activity level … on Veronica” value is 9. In the series on major crops, the “Pre-emergence plant damage level … on Corn” value is 0, the “Pre-emergence plant damage level … on Cotton” value is recorded as 0 and the “Pre-emergence plant damage level … on Soybean” value is listed as 0.
